{
  "source": "patent US20120220554A1",
  "about": "“Combretastatins for Prevention of Posterior Capsule Opacification” (OXIGENE, INC., priority 2010, published 2012)",
  "key": {"[1]": {"system": "Primary bovine lens epithelial cells", "experiment": "Primary bovine lens epithelial cells on the lens capsule, serum-free, continuous exposure: cell number and morphology", "type": "cell-based", "description": "Primary bovine lens epithelial cells were cultured in serum-free conditions, survival factors being released from the lens capsule. Paclitaxel or combretastatin A-4 phosphate was added to the culture to a final concentration of 10 nM, 100 nM or 10 μM. Cell number was determined for each capsule at 48 h and 96 h after addition of the test agent. Two capsules were taken per treatment and cell numbers averaged after being expressed as a percentage of 48 h value. This indicates the increase/decrease in cell number within a 48 h time period (i.e. from 48 h to 96 h), normalized as a percentage. Independent T-test P value between CA4P control and 10 μM is 0.0002.\nBy light microscopy, CA4P has a dramatic effect upon cell morphology, retaining the cobblestone characteristic of the lens epithelium, when in the control cultures the lens cells have begun to trans-differentiate actinsm/desmin positive cells and migrate off the capsule. Pictures were taken from live primary bovine cells on the lens capsule with FujiFinepix (FIG. 3)."}, "[2]": {"system": "polymerized tubulin in primary bovine lens epithelial cells", "experiment": "Anti-tubulin immunofluorescence of primary lens epithelial cells on the lens capsule", "type": "cell-based", "conditions": "single 30 min treatment with 1 μM CA4P, at 30 min after start and up to 48 h after end of exposure (FIG. 5)", "source_text": "Bovine eyes were obtained from Coast and County Meat Group (Felling, UK) on the day of culling and lenses were dissected out of the eyes under a sterile tissue culture hood as described below. After generous dousing in 70% ethanol, eyes were cut open using a major surgical blade (Swann-Morton, UK) via a single cut, parallel and posterior to the cornea-conjunctiva limit. The eye was then inverted and the vitreous removed. The lens was freed from the ciliary fibers and immediately placed anterior face down in a SYLGARD-covered (Dow Corning, Germany) well of a 12-well tissue culture plate (Greiner Bio-One, UK). The posterior side of the lens capsule was cut in a Y-shape fashion by a thin scalpel and the resulting flaps pulled back and pinned onto the SYLGARD. The fiber mass was removed by gently rolling it off the anterior lens capsule, thus leaving most of the primary lens epithelial cell layer attached onto the anterior lens capsule. This primary lens epithelial cell layer was then cultured on its original lens capsule at 37° C., 5% CO2, in 0% FCS-supplemented tissue culture.\n[…] Immediately after the end of the CA4P exposure and 48 h after the end of the CA4P exposure, the presence of polymerized tubulin in the primary lens epithelial cell layers was investigated by immunofluorescence. […]"}, "[3]": {"system": "Primary bovine lens epithelial cells", "experiment": "Wound edge migration, multi-layering and EMT hallmarks of primary lens epithelial cells on the lens capsule", "type": "cell-based", "description": "We tested CA4P as a potential inhibitor of lens epithelial cells epithelial-mesenchymal transition (EMT) during posterior capsular opacification (PCO), a common complication of cataract surgery. […] This effect persisted up to 48 h after CA4P exposure. Lens epithelial cell proliferation was also affected, as assayed by Ki67 immunofluorescence, MTT-based cell viability assays and cell cycle analysis by flow cytometry. Hallmarks of EMT, namely loss of cell polarity and migratory behavior, were also investigated in primary bovine lens epithelial cells grown on the lens capsule and were decreased by CA4P exposure, although cell multilayering seemed unaffected.\n(FIG. 5). In addition, primary bovine lens epithelial cells grown on the lens capsule in serum-free conditions for 48 h move away from the wound edge."}, "BIE cells": {"system": "BIE cells", "experiment": "Ki67 immunofluorescence (cell proliferation) in BIE cells", "type": "cell-based, bovine", "description": "BMI-immortalized bovine lens epithelial cells (BIE cell line, produced in Roy Quinlan's Laboratory, University of Durham, UK), were seeded onto 13 mm round coverslips in 6-well tissue culture plates in 10% fetal calf serum (FCS)-supplemented tissue culture medium (Sigma-Aldrich, UK) and kept at 37° C., 5% CO2 overnight. The next morning, they were exposed to 1 μM CA4P diluted in 10% FCS-supplemented medium for 30 min, after which the cells were returned to 10% FCS-supplemented medium. After 48 h, the prevalence of Ki67 positive cells was assessed by immunofluorescence.\nBIE cells on coverslips were rinsed three times in PBS, followed by a single 20 min fixation in a 1:1 mix of methanol and acetone, three rinses in PBS/0.2 g/L BSA/0.2 g/L Na Azide and a single 20 min blocking step in 10% goat serum (Sigma-Aldrich, UK) diluted in PBS/BSA/NaAzide. The cells were then exposed to primary antibody (Ki-67: mouse monoclonal, 1/100, MIB-1 (DAKO, Denmark)) for 1 h at room temperature, after which they were rinsed three times in PBS/BSA/NaAzide and exposed to secondary antibody (goat anti-mouse IgG FITC-conjugated, 1/100; DAPI, 1/1000 (Sigma-Aldrich, UK)) for 1 h at room temperature in the dark. After three last rinses in PBS/BSA/NaAzide, the cells were plated onto microscope slides (VWR International, Belgium) and examined using a Zeiss LSM 510 Meta confocal microscope and its associated software. Ki-67 positive cells were counted out of a total of between 200 and 500 cells per coverslip, for two coverslips for each of three independent repeats, and expressed as the average percentage of Ki-67 positive cells out of the total number of cells counted (as determined by DAPI staining). Significant differences between control and treated cells were assessed by Chi^2-test."}, "phospho-Erk in BIE cells": {"system": "phospho-Erk in BIE cells", "experiment": "Erk phosphorylation immunoblot in BIE cells", "type": "cell-based, bovine", "description": "(§1) Phospho-Erk ½ levels were elevated immediately after the end of CA4P exposure in both control and treated cells and decreased 1 h after the end of CA4P exposure in both control and treated cells (FIG. 7). […] Therefore, it could be hypothesized that, in primary cells, a general stress response due to dissection will mask CA4P's effect on Erk phosphorylation. Phosphorylated p38 and JNK levels were not affected by CA4P treatment (data not shown)."}, "Phosphorylated JNK": {"system": "Phosphorylated JNK", "experiment": "Phosphorylated JNK level", "type": "cell-based, bovine", "conditions": "CA4P treatment (data not shown)", "description": "as §1"}, "[4]": {"conditions": "30 min exposure to 1 mM CA4P immediately after wounding, serum-free, 48 h (data not shown)"}, "[5]": {"conditions": "48 h after 30 min exposure to 1 μM CA4P"}},
  "data": [
    {"compound": "COc1ccc(/C=C\\c2cc(OC)c(OC)c(OC)c2)cc1OP(=O)(O)O", "note": "[CA4P, combretastatin A-4 phosphate]", "values": [
      {"measurement": "decline in cell number, compared with paclitaxel", "setting": "[1]; 10 nM, 100 nM or 10 μM, cell number at 48 h and 96 h, over a 96 hour exposure (FIG. 1, FIG. 2)", "result": "more effective than paclitaxel at inducing a decline in cell number"},
      {"measurement": "cell morphology by light microscopy", "setting": "[1]; CA4P 10 μM, live primary bovine cells on the lens capsule, 48 and 96 h (FIG. 3)", "result": "show only epithelial sheets with the typical cobblestone appearance of the lens epithelium"},
      {"measurement": "polymerized tubulin (immunofluorescence)", "setting": "[2]", "result": "loss of polymerized tubulin"},
      {"measurement": "cell multi-layering", "setting": "[3]; [4]", "result": "does not prevent cell multi-layering"},
      {"measurement": "cells moving away from the wound edge", "setting": "[3]; [4]", "result": "prevents the cells from leaving the wound edge"},
      {"measurement": "hallmarks of EMT: loss of cell polarity and migratory behavior", "setting": "[3]; primary bovine lens epithelial cells grown on the lens capsule", "result": "decreased"},
      {"measurement": "nuclear morphology", "setting": "BIE cells; 30 h after exposure (data not shown)", "result": "changes in nuclear morphology, as well as multinucleated cells were detected"},
      {"measurement": "Ki67 negative (%)", "setting": "BIE cells; [5]", "result": "85.1 ± 5.7", "unit": "%"},
      {"measurement": "Ki67 positive (%)", "setting": "BIE cells; [5]", "result": "14.9 ± 5.7", "unit": "%"},
      {"measurement": "cell loss", "setting": "BIE cells; by 48 h after exposure", "result": "cell loss is extensive"},
      {"measurement": "phospho-Erk levels", "setting": "phospho-Erk in BIE cells; 1 h after the end of CA4P exposure", "result": "returned to control levels"},
      {"measurement": "phospho-Erk levels", "setting": "phospho-Erk in BIE cells; immediately after the end of CA4P exposure", "result": "elevated"},
      {"measurement": "Phosphorylated JNK levels", "setting": "Phosphorylated JNK", "result": "not affected"}
    ]}
  ]
}
